# Laboratory results: article PMC5793121 (Toxins, 2018)
# “Also recorded” adds a separate entry of the source. Read-outs that look alike come from different tables or passages of the source.
# Legend:
# mice [1] = details: mouse, in vivo; cited from earlier work
# [2] = human; cited from earlier work
# From the text: Pharmacokinetics and pharmacodynamics are the empirical mathematical models that describe the time course of drug effect after administration. Pharmacokinetics describes the disposition of drug in the organism, while pharmacodynamics relates the drug effects to their concentration in the plasma and at the site of action. They can be used to predict the drug action at different doses and by this way to optimize the safe and effective use of the drug. Information from pharmacokinetic studies can be used in the design and analysis of data from other toxicity studies. Several pharmacokineti ...
# [3] = test system: hprt gene of CHO-k1 cells; details: n = 6
# [4] = test system: human neuronal heteromeric α3-containing nAChRs (α3β2, α3β4, etc.); assay type: cell-based
# mice [5] = details: 0.1 mg/kg; cited from earlier work
# [6] = test system: cultured human peripheral blood lymphocytes; details: concentrations without significant cytotoxic effect; cited from earlier work
# From the text: Mutagenicity, that is the induction of permanent transmissible changes in the amount or structure of the genetic material of cells or organisms, is very important parameter of drug candidate. Highly mutagenic compounds can hardly be considered for drug development, therefore mutagenicity studies are a necessary phase in preclinical evaluations.
# rats = details: iv injection to rats; cited from earlier work
# Protocol: Acute toxicity of Az was determined using different administration ways: intraperitoneal (ip), intramuscular (im) and intravenous (iv) injections.
# male ICR mice [7] = assay: in vivo
# Protocol: Az acute toxicity was estimated for its intravenous (iv) and intramuscular (im) administration to male ICR mice in a stepwise procedure.
# For the iv route of administration, 20 mice were randomly divided in 5 groups of 4 animals each. The animals of each group received a single dose of Az (0.3, 0.4, 0.5, 0.6, or 0.7 mg/kg, respectively) injected into the lateral tail vein at a volume of 1 mL/kg. For the im route of administration, first two experimental groups of 3 animals each were formed. Az at doses of 0.75 and 1.0 mg/kg, respectively, was injected into the quadriceps muscle of the thigh (quadriceps femoris muscle) of two mouse hind limbs at a volume of 0.5 mL/kg to each muscle. Then, five experimental groups of 5 animals each were formed. Az was injected into the quadriceps muscle of the thigh (quadriceps femoris muscle) of the two hind limbs of male ICR mice at doses of 0.8, 0.775, 0.75, 0.725 and 0.7 mg/kg. The injection volume to each limb was 1 mL/kg. Further, neurotoxic manifestations were recorded in animals at 5, 10, 20, 30, 60 and 90 min and 24 h after administration using the functional observation battery, the number of death was counted as well.
# For the iv and im route of administration, the median lethal dose (LD50) was calculated using a probit analysis. For the im route of administration, the maximum tolerated dose was determined.
# Rocuronium was administered intramuscularly at doses of 0.13 mg/kg (n = 1), 0.1 mg/kg (n = 4) and 0.08 mg/kg (n = 4) in the triceps of the forelimbs of male ICR mice (8–9 weeks old). Control animals were injected with saline (n = 4). The volume of administration was 0.5 mL/kg in each limb.
# [8] = target: T1, mouse muscle type α1β1εδ nAChR (Mus musculus, UniProt P02716+P04756+P20782); assay: Calcium imaging of ACh-evoked [Ca2+]i rise in Neuro2a cells expressing muscle nAChR (Case12 sensor); assay type: cell-based
# T1 construct: expressed in transfected cells; host or cells: mouse neuroblastoma Neuro2a, transient transfection (pRBG4 plasmids), co-expressed with Case12 calcium sensor
# Protocol: (§1) Mouse neuroblastoma Neuro2a cells were purchased from the Russian collection of cell cultures (Institute of Cytology, Russian Academy of Sciences, Saint Petersburg, Russia). Cells were cultured in DMEM (Paneco, Moscow, Russia) supplemented with 10% FBS. They were sub-cultured the day before transfection and were plated at a density of 10,000 cells per well in a 96-well black plate. On the next day Neuro2a cells were transiently transfected with plasmids coding mouse muscle α1β1δε nAChR (pRBG4-vector) and a fluorescent calcium sensor Case12 (pCase12-cyto vector, Evrogen, Moscow, Russia) in a molar ratio of 2:1 following a lipofectamine transfection protocol (ThermoFisher Scientific, Waltham, MA, USA). Human α7 nAChR (α7 nAChR-pCEP4) was expressed accordingly with a co-expression of the human chaperone Ric-3 (Ric3-pCMV6-XL5, OriGene, Rockville, MD, USA) in a molar ratio 4:1. The transfected cells were grown at 37 °C in a CO2 incubator for 48–72 h, before performing the calcium imaging assay.
# Calcium imaging procedure was performed as published earlier. Briefly, after removing the growth medium, the transfected Neuro2a cells and cultivated SH-SY5Y cells were washed with a buffer containing 140 mM NaCl, 2 mM CaCl2, 2.8 mM KCl, 4 mM MgCl2, 20 mM HEPES, 10 mM glucose; pH 7.4. Neuro2a cells expressing muscle nAChR and the protein calcium sensor Case12 were proceeded directly, while SH-SY5Y cells expressing human α3-containing nAChRs natively were loaded with a fluorescent dye Fluo-4, AM (1.824 μM, ThermoFisher Scientific, Waltham, MA, USA) and a water-soluble probenecid (1.25 mM, ThermoFisher Scientific, Waltham, MA, USA) for 30 min at 37 °C and then were kept for 30 min at room temperature according to the manufacturer’s protocol.
# To detect the human α7 nAChR-mediated calcium response, transfected Neuro2a cells were incubated with its positive allosteric modulator PNU120596 (10 μM, Tocris Bioscience, Bristol, UK) for 20 min at room temperature before acetylcholine (Sigma-Aldrich Chemie Gmbh, Munich, Germany) addition. To assess mouse muscle or human α3-containing nAChRs this step was skipped. […]
# (§2) The plates were transferred to the multimodal microplate reader Hidex Sence (Hidex, Turku, Finland) where the cells were excited by light of 485 nm wavelength and emitted fluorescence was detected at 535 ± 10 nm. Fluorescence was recorded every 2 s for three minutes following agonist addition. Responses were measured as peak intensity minus basal fluorescence level and were expressed as a percentage of the maximal response obtained to agonist. Data files were analyzed using Hidex Sence software (Hidex, Turku, Finland) and OriginPro 7.5 software (OriginLab, Northampton, MA, USA, for statistical analysis).
# [9] = target: T2, human neuronal homopentameric α7 nAChR (Homo sapiens, UniProt P36544); assay: Calcium imaging of ACh-evoked [Ca2+]i rise in Neuro2a cells expressing α7 nAChR; assay type: cell-based; details: 10 μM ACh (EC50); transfected Neuro2a cells, PNU120596 10 μM; 15 min preincubation; mean ± SEM, 4 independent experiments; read-out: IC50, inhibition of ACh-evoked calcium response of α7 nAChR
# T2 construct: expressed in transfected cells; host or cells: mouse neuroblastoma Neuro2a, transient transfection (α7 nAChR-pCEP4) with human Ric-3 (Ric3-pCMV6-XL5, OriGene)
# Protocol: as §1, with “Human α7 nAChR (α7 nAChR-pCEP4) was expressed accordingly with a co-expression of the human chaperone Ric-3 (Ric3-pCMV6-XL5, OriGene, Rockville, MD, USA) in a molar ratio 4:1. The transfected cells were grown at 37 °C in a CO2 incubator for 48–72 h, before performing the calcium imaging assay.” left out
# as §2
# male ICR mice [10] = assay: Forelimb grip strength test (muscle relaxant effect) after intramuscular administration; assay type: in vivo, mouse
# Protocol: 40 male ICR mice were divided equally into four groups: one control and three experimental groups. Animals of the control and experimental groups were treated with normal saline and with Az at doses of 0.03, 0.1 and 0.3 mg/kg, respectively. In addition 6 mice were treated with Az at dose of 0.01 mg/kg. The corresponding solutions were injected into the triceps muscles of the mouse forelimbs at a volume of 0.5 mL/kg per each limb. For all animals their basic forelimb grip strength was recorded before the substance administration with a 1027 grip strength meter (Columbus Instruments, Columbus, OH, USA). Further, their grip strength was measured 5, 10, 15, 20, 30, 60, 90 min after the Az (or normal saline) im administration.
# Rocuronium was administered intramuscularly as described for the measurement of acute toxicity (Section 5.4.1). Muscle strength was assessed prior to administration of the substance and then 1, 2, 3, 4, 5 min after administration.
# [11] = Protocol: The pharmacokinetic study was performed using 163 male ICR mice. Four experimental groups with 40 animals in each were formed. Three intact mice were used as control animals. The animals of the first two experimental groups were intravenously injected with 0.25 and 0.50 mg/kg [^125I]-Az, respectively. The animals of the other two experimental groups were intramuscularly injected with 0.25 and 0.50 mg/kg [^125I]-Az, respectively. To estimate Az elimination rate, animal blood samples were taken from the orbital sinus 5, 15, 30, 60 min and 1, 2, 4 and 24 h after [^125I]-Az administration. The obtained blood samples were weighed. For each indicated time point, [^125I]-Az concentration was calculated as a mean value in blood samples of five animals. The radioactivity (cpm) in the blood samples was counted using a Wallac 1470 WIZARD® Gamma Counter (Perkin Elmer, Waltham, MA, USA). […] Radioactivity data (cpm) were re-calculated to the concentration of [^125I]-Az in the obtained blood samples. The specific pharmacokinetic parameters (AUC (0 → t), Cmax, T1/2) of [^125I]-Az were estimated.
# [12] = intramuscular administration, 0.25 and 0.5 mg/kg, male ICR mice
# T1 sequence (P09690 24-501): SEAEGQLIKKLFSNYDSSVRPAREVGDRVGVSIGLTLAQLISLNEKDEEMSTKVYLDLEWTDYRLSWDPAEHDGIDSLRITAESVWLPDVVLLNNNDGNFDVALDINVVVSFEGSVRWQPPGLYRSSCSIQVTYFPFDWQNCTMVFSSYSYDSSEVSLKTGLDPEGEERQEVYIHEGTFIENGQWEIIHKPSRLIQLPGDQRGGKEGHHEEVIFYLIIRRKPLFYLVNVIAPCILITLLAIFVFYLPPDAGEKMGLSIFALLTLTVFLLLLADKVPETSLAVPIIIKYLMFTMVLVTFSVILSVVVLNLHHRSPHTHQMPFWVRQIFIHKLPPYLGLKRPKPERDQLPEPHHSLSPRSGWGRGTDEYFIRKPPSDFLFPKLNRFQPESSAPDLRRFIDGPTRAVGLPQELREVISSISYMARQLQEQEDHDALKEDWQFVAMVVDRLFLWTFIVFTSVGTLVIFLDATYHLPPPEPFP
# T1 sequence (P04756 21-457): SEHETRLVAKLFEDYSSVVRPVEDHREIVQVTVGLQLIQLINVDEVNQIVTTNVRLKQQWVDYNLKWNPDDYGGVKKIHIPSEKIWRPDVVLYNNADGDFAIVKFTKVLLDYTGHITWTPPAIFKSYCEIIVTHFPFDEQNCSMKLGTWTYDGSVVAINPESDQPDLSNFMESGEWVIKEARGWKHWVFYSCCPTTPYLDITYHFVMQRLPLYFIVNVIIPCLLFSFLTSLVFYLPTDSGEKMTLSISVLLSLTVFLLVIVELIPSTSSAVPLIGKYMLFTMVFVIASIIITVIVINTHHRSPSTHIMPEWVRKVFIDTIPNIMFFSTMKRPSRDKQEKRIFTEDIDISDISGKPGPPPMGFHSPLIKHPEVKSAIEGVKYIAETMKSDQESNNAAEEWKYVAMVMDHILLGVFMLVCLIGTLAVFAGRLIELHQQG
# T1 sequence (P02716 25-520): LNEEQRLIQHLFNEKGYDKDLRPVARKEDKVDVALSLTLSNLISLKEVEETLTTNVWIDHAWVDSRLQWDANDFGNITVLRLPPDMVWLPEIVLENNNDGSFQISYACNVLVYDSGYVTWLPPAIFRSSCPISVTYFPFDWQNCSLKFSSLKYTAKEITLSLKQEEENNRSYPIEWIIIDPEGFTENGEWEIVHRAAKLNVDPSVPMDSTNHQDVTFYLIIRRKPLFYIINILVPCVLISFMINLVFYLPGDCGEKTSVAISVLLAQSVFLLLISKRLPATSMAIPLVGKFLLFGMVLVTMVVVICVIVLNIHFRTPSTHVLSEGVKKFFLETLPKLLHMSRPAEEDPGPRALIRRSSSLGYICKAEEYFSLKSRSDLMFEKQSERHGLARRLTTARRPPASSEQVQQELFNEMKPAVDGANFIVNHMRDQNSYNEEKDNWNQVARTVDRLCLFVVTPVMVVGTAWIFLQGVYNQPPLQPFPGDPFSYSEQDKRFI
# T1 sequence (P20782 21-493): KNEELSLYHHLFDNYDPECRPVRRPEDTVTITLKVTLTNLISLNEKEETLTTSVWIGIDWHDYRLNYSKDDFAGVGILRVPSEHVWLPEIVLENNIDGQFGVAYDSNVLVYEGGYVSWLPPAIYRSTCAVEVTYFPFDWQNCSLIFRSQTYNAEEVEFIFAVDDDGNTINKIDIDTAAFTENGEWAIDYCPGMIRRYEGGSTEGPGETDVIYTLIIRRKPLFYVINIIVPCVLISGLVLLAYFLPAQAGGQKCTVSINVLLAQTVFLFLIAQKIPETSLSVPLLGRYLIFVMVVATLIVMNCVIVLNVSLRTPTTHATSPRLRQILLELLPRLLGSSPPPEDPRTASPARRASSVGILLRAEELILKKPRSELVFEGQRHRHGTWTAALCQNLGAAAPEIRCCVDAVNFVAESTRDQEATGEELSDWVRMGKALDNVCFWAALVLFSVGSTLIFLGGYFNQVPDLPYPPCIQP
# T2 sequence (P36544 23-502): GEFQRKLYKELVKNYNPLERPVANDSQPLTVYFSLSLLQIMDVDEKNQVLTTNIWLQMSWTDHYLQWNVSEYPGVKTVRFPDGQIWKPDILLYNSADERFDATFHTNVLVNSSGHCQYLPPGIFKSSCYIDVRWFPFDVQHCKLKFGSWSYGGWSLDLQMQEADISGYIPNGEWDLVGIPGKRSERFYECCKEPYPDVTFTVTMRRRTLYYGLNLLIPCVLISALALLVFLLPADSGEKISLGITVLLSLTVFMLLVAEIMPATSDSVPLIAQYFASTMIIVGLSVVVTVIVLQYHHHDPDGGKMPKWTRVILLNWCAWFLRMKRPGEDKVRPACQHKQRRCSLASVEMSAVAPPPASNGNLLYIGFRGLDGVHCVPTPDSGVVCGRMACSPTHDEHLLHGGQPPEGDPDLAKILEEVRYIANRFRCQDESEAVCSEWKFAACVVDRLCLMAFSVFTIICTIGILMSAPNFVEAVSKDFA
compound,measurement,setting,value
COc1cc2c3cc1Oc1cc(ccc1O)C[C@@H]1c4c(cc(OC)c(O)c4Oc4ccc(cc4)C[C@@H]3N(C)CC2)CC[N+]1(C)C [(+)-tubocurarine],LD50,mice [1],0.11 mg/kg
COc1ccc(CC2c3cc(OC)c(OC)cc3CC[N+]2(C)CCC(=O)OCCCCCOC(=O)CC[N+]2(C)CCc3cc(OC)c(OC)cc3C2Cc2ccc(OC)c(OC)c2)cc1OC (stereo not drawn) [atracurium],excretion half-life,[2],17 min
"CCN(N=O)C(N)=O [ethylnitrosurea, reference compound]",frequency of mutations in the hprt gene,"[3]; positive control 6.25 and 12.5 μg/mL, absence of S9",33.9–39.5 × 10^−6
"Cc1ccc2cc3c(ccc4ccccc43)c3c2c1CC3 [methylcholanthrene, reference compound]",frequency of mutations in the hprt gene,"[3]; positive control 2.5 and 5 μg/mL, presence of S9",35.7–45.7 × 10^−6
"CN1CCC[C@H]1c1cccnc1 [nicotine, reference compound]",EC50,[4]; read-out: EC50 of nicotine-induced calcium responses,22 ± 2 µM
CC(=O)O[C@H]1C[C@@H]2CC[C@@H]3[C@H](CC[C@@]4(C)[C@H]3C[C@H]([N+]3(C)CCCCC3)[C@@H]4OC(C)=O)[C@@]2(C)C[C@@H]1[N+]1(C)CCCCC1 [pancuronium],decrease of grip strength,mice [5],24.1%
"C=CC[N+]1([C@H]2C[C@H]3[C@@H]4CC[C@H]5C[C@H](O)[C@@H](N6CCOCC6)C[C@]5(C)[C@H]4CC[C@]3(C)[C@H]2OC(C)=O)CCCC1 [rocuronium, Rocuronium Bromide, reference compound]",genotoxicity,[6],capable of causing genotoxicity via clastogenic effects
same,LD50,rats,about 0.3 mg/kg
same,visible signs of toxicity,male ICR mice [7]; rocuronium im 0.08 mg/kg,did not induce visible signs of toxicity
same,time after administration at which toxicity signs disappeared,male ICR mice [7]; rocuronium im 0.1 mg/kg,3 to 4 min
same,time of first signs of intoxication after injection,male ICR mice [7]; rocuronium im 0.13 mg/kg,30 s
same,time of death after injection,"male ICR mice [7]; rocuronium im 0.13 mg/kg, n = 1",11.5 min
same,lethality,"male ICR mice [7]; rocuronium im 0.08 and 0.1 mg/kg, n = 4 each",did not cause the death of animals
same,Cmax,[2],27 µg/kg
same,excretion half-life,[2],71 min
same,inhibition of Nic induced responses,[4],about 60%
same,IC50,"[8]; 30 μM ACh (EC100), transfected Neuro2a cells, Case12 sensor, 15 min preincubation, mean ± SEM, 4 independent experiments, read-out: IC50, inhibition of ACh-evoked calcium response of muscle nAChR",0.257 ± 0.0955 µM
same,selectivity to muscle receptor versus α7 nAChR,[8]; ratio of calcium imaging IC50 values α7 / muscle,about 100 times
same,IC50,[9],25.7 ± 4.5 µM
same,effect on grip strength compared to control,"male ICR mice [10]; rocuronium 0.08 mg/kg im, n = 4",no statistically significant difference; also recorded: no statistically significant relaxing effect
same,grip strength,"male ICR mice [10]; rocuronium 0.13 mg/kg im, after 60 s, n = 1",0 kg
same,time after injection at which effect disappeared,male ICR mice [10]; rocuronium im,≤ 5 min
CC(=O)O[C@H]1C[C@@H]2CC[C@@H]3[C@H](CC[C@@]4(C)[C@H]3C[C@H]([N+]3(C)CCCCC3)[C@@H]4OC(C)=O)[C@@]2(C)C[C@@H]1N1CCCCC1 [vecuronium],LD50,mice [1],0.05 mg/kg
same,Cmax,[2],about 1 µg/mL
diiodoazemiopsin [[^125I]-Az],lethality,"male ICR mice [7]; [125I]-Az single iv and im 0.25 and 0.50 mg/kg, male ICR mice",No lethality
same,removal from the free blood flow,"[11]; during 24 h, both iv and im administration",almost completely removed
same,half-life T1/2,[11]; [12],20 to 40 min
same,time within which maximum concentration (Cmax) was achieved,[11]; [12],five
same,excretion half-life (T1/2),"[11]; single intravenous injection, 0.25 and 0.5 mg/kg, male ICR mice",15 to 20 min
α-conotoxin MII [reference compound],IC50,"[4]; read-out: IC50, inhibition of calcium responses induced by 100 µM nicotine",0.06 ± 0.004 µM
